Measurements reported in ChEMBL document CHEMBL3769361, “Novel squaramides with in vitro liver stage antiplasmodial activity” (Bioorg Med Chem, 2016).

Tests used:
Plasmodium berghei [1] = experiment: Potency index, ratio of bulaquine IC50 to compound IC50 for liver stage Plasmodium berghei infected in Huh7 cells; assay type: functional, Huh-7
Plasmodium falciparum [2] = experiment: Antiplasmodial activity against chloroquine-resistant Plasmodium falciparum W2 infected in human erythrocytes after 48 hrs by flow cytometry; assay type: functional, organism-based; details: W2, 48 h
[3] = Cytotoxicity against human HuH7 cells infected with Plasmodium berghei assessed as cell proliferation at 1 to 10 uM by Alamar blue assay; assay type: cell-based; details: huh-7, 10 µM
Plasmodium berghei [4] = experiment: Antiplasmodial activity against liver stage Plasmodium berghei infected in Huh7 cells assessed as inhibition of parasite infection incubated for 1 hr prior to infection measured at 24 hrs by luciferase reporter gene assay; assay type: functional, organism-based; details: Huh-7, Liver
[5] = Cytotoxicity against HEK293T cells assessed as cell viability after 48 hrs by MTT assay; assay type: cell-based; details: Homo sapiens, HEK-293T
Plasmodium falciparum [6] = experiment: Antiplasmodial activity against chloroquine-resistant Plasmodium falciparum W2 infected in human erythrocytes after 24 hrs by [3H]-hypoxanthine incorporation assay; assay type: functional, organism-based

| Compound | Ratio IC50 (Plasmodium berghei [1]) | IC50 (Plasmodium falciparum [2]) | Activity [3] | IC50 (Plasmodium berghei [4]) | IC50 [5] | IC50 (Plasmodium falciparum [6]) |
| --- | --- | --- | --- | --- | --- | --- |
| CCCCOc1c(NCCCCCNc2cc(OC)cc3cccnc23)c(=O)c1=O | 4.3 | > 10 µM | Non-toxic | 2.2 µM | > 100 µM | – |
| COc1cc(NC(C)CCCNc2c(NCCCC(C)Nc3cc(OC)cc4cccnc34)c(=O)c2=O)c2ncccc2c1 (configuration not stated) | 4.3 | – | – | 1.3 µM | – | – |
| CCCCOc1c(NCCC(C)Nc2cc(OC)cc3cccnc23)c(=O)c1=O (configuration not stated) | – | 5.1 µM | Non-toxic | – | > 100 µM | – |
| CCCCOc1c(NCCNc2cc(OC)cc3cccnc23)c(=O)c1=O | – | 8.5 µM | Non-toxic | – | > 100 µM | – |
| COc1cc(NC(C)CCCN/C(C)=C2/CCOC2=O)c2ncccc2c1 (configuration not stated) | – | – | – | 10 µM | – | 1.6 µM |
| CCCCOc1c(NCCCC(C)Nc2cc(OC)cc3cccnc23)c(=O)c1=O (configuration not stated) | 4.3 | – | – | 1.3 µM | – | – |
| CCCCOc1c(Nc2cc(OC)cc3cccnc23)c(=O)c1=O | – | > 10 µM | Non-toxic | – | – | – |
| COc1cc(NC(C)CCCN)c2ncccc2c1 (configuration not stated) [PRIMAQUINE] | – | – | – | 9.5 µM | – | – |
| COc1cc(NC(C)CCCNc2c(OC)c(=O)c2=O)c2ncccc2c1 (configuration not stated) | – | > 10 µM | Non-toxic | – | – | – |
| CCCCNc1c(NCCCC(C)Nc2cc(OC)cc3cccnc23)c(=O)c1=O (configuration not stated) | – | > 10 µM | Non-toxic | – | – | – |
| CCOc1c(NCCCC(C)Nc2cc(OC)cc3cccnc23)c(=O)c1=O (configuration not stated) | – | 7.3 µM | Non-toxic | – | > 100 µM | – |
| CCCCOc1c(NCCCNc2cc(OC)cc3cccnc23)c(=O)c1=O | 4.3 | 5.1 µM | Non-toxic | 1.8 µM | > 100 µM | – |
